{
  "source": "patent US20240308953A1",
  "about": "“SOLUBLE CHELATOR FOR TARGETING RECOMBINANT PROTEINS” (CUBE BIOTECH GMBH, priority 2021, published 2024)",
  "test_system": "His-tagged proteins",
  "experiment": "surface plasmon resonance, immobilized chelator, protein loss during wash",
  "type": "binding",
  "settings": "immobilized for surface plasmon resonance measurements",
  "from_the_text": "The affinity of the soluble chelator of the present invention for His-tagged proteins is much higher, compared to the NTA analoga. […] So, a stable, non-reversible protein binding via affinity bonds between metal and poly-His is feasible.",
  "data": [
    {"smiles": "O=C(O)CN(CC(=O)O)CC(=O)O", "note": "[NTA, nitrilotriacetic acid]", "values": [
      {"measurement": "protein loss from the chip", "result": "protein leaching during wash"}
    ]}
  ]
}
